The values that follow come from ChEMBL document CHEMBL4196062, “Trypanothione reductase inhibition and anti-leishmanial activity of all-hydrocarbon stapled α-helical peptides with improved proteolytic stability” (Eur J Med Chem, 2018).

Activity calls are given as the source filed them. The rule behind the calls is not given here. Positions of bridges follow the written chain, without caps; N, C: chain ends. Non-standard residues stand in square brackets, D forms with d. Residues, ends and D or L forms follow the SMILES beside them. *: point of attachment. X1 = O=C(O)c1ccc(NC(=S)*)cc1-c1c2ccc(=O)cc-2oc2cc(O)ccc12; R5 = C=CCCC[C@@](C)(N)C(=O)O; S5 = C=CCCC[C@](C)(N)C(=O)O; Nle = CCCC[C@H](N)C(=O)O; AEEA = NCCOCCOCC(=O)O

Series [1] has as its target T1, Trypanothione reductase (Leishmania infantum, UniProt A4HSF7). The series is described as follows: Inhibition of recombinant Leishmania infantum trypanothione reductase using T[S]2 as substrate preincubated for 5 mins followed by substrate and NADPH addition measured for 1 hr.
For series [2], the target named is T2, Proteinase K (Engyodontium album, UniProt P06873). In words: Drug metabolism assessed as Tritirachium album proteinase K-mediated compound degradation by measuring half life at 100 uM measured up to 360 mins by HPLC method. Format: ADME. The conditions noted are these: parengyodontium album.
Series [3] has as its target T1, Trypanothione reductase. The series is described as follows: Inhibition of dimerization of HIS/FLAG tagged Leishmania infantum trypanothione reductase incubated for 16 hrs by ELISA.
Series [4] deals with T3, Glutathione reductase, mitochondrial (Homo sapiens) (UniProt P00390).
T3 sequence (whole entry): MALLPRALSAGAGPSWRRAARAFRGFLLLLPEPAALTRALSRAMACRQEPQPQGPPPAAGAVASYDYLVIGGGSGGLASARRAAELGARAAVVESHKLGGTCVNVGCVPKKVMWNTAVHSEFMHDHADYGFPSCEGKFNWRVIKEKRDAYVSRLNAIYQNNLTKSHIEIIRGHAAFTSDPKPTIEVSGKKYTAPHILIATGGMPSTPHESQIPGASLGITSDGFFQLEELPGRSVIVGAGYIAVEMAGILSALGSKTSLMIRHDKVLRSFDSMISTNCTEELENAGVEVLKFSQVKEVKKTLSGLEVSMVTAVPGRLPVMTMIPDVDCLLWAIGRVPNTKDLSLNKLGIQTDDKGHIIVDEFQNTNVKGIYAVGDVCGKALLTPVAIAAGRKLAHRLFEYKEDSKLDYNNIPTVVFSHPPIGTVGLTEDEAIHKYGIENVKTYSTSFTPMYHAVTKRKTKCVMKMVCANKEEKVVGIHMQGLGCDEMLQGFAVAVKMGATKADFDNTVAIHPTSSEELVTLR
The series is described as follows: Activation of recombinant human glutathione reductase using GSSG as substrate preincubated for 5 mins followed by substrate and NADPH addition.

In series [5] the target is Trypanothione reductase (Leishmania infantum) (UniProt A4HSF7). The series is described as follows: Inhibition of dimerization of HIS/FLAG tagged Leishmania infantum trypanothione reductase assessed as dimer levels at 37.5 uM incubated for 16 hrs by ELISA. On the set-up: scale not given: the % may be the effect or the level left.
For series [6] the target is unchanged. In words: Inhibition of dimerization of HIS/FLAG tagged Leishmania infantum trypanothione reductase assessed as dimer levels at 9.375 uM incubated for 16 hrs by ELISA. Also on record: scale not given: the % may be the effect or the level left.
For series [7], the system named is Leishmania infantum. In words: Antileishmanial activity against Leishmania infantum MCAN/ES/89/IPZ229/1/89 axenic amastigotes infected in human THP1 cells at 25 uM after 24 hrs by propidium iodide staining based fluorescence microscopic analysis. Format: functional, organism-based.
In series [8] the test system is Leishmania infantum. In words: Antileishmanial activity against Leishmania infantum MCAN/ES/89/IPZ229/1/89 promastigotes at 25 uM after 24 hrs by propidium iodide staining based fluorescence microscopic analysis. Format: functional, organism-based.
For series [9], the target named is Trypanothione reductase (Leishmania infantum) (UniProt A4HSF7). In words: Inhibition of dimerization of HIS/FLAG tagged Leishmania infantum trypanothione reductase assessed as dimer levels at 18.75 uM incubated for 16 hrs by ELISA. On the set-up: scale not given: the % may be the effect or the level left.
In series [10] the target is T2, Proteinase K. In words: Drug metabolism assessed as Tritirachium album proteinase K-mediated compound degradation by measuring half life at 100 uM measured up to 480 mins by HPLC method. Format: ADME. The conditions noted are these: parengyodontium album.
Series [11] addresses Trypanothione reductase (Leishmania infantum) (UniProt A4HSF7). The series is described as follows: Inhibition of dimerization of HIS/FLAG tagged Leishmania infantum trypanothione reductase assessed as dimer levels at 75 uM incubated for 16 hrs by ELISA. On the set-up: scale not given: the % may be the effect or the level left.
Series [12] deals with Leishmania infantum. In words: Antileishmanial activity against Leishmania infantum MCAN/ES/89/IPZ229/1/89 promastigotes after 24 hrs by propidium iodide staining based fluorescence microscopic analysis. Format: functional, organism-based. The conditions noted are these: MCAN/ES/89/IPZ229/1/89, 24 h.
Series [13] concerns Leishmania infantum. The series is described as follows: Antileishmanial activity against Leishmania infantum MCAN/ES/89/IPZ229/1/89 axenic amastigotes infected in human THP1 cells after 24 hrs by propidium iodide staining based fluorescence microscopic analysis. Format: functional, organism-based. The note with it: MCAN/ES/89/IPZ229/1/89, THP-1, 24 h.
The subject of the next series is THP-1. In words: Cytotoxicity against human THP1 cells assessed as reduction in cell viability after 24 hrs by propidium iodide staining based fluorescence microscopic analysis. The conditions noted are these: THP-1, 24 h.

Sequence of Trypanothione reductase (Leishmania infantum) (A4HSF7 as listed by the source): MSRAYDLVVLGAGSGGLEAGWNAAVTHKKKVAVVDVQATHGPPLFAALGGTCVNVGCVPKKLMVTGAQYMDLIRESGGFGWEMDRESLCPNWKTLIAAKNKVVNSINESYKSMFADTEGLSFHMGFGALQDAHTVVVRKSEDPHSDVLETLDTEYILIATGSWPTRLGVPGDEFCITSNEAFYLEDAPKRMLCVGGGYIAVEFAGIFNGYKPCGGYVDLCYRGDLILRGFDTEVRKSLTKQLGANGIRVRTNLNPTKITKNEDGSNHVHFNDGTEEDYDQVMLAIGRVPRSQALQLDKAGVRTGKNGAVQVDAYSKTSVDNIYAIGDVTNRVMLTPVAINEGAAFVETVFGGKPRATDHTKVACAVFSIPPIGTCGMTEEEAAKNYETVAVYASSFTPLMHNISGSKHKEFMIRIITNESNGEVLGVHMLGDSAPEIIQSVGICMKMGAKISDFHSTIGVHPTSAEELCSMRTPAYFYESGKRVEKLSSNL
T1 sequence (A4HSF7 whole entry): as the sequence (A4HSF7 as listed by the source) above
T2 sequence (P06873 whole entry): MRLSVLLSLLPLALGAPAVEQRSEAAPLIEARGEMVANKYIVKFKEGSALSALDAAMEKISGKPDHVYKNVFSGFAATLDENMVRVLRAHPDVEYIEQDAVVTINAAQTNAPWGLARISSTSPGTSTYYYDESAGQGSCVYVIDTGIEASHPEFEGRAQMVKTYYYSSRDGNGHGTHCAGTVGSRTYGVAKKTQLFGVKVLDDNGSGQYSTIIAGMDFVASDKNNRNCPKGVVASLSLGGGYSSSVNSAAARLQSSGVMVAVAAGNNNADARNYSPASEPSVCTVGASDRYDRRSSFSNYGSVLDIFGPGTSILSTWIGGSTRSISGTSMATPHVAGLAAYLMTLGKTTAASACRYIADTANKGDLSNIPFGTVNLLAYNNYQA

For the molecule `CCCC[C@H](NC(=O)[C@H](CC(C)C)NC(=O)[C@H](CCCC)NC(=O)[C@H](CO)NC(=O)[C@@H](NC(=O)CNC(=O)[C@@H](NC(=O)[C@H](CO)NC(=O)[C@H](CCC(N)=O)NC(=O)[C@@H](NC(=O)[C@@H](NC(=O)[C@H](CC(C)C)NC(=O)[C@@H]1CCCN1C(C)=O)[C@@H](C)CC)[C@@H](C)CC)C(C)C)[C@@H](C)CC)C(N)=O`, the half-inhibitory concentration (IC50) at Trypanothione reductase [1] worked out at 1.2 µM; at Trypanothione reductase [3] (read-out: IC50), 13.5 µM. For the same molecule, on Proteinase K [2], the half-life at 100 µM is 22.5 to 23 min.
As to `CCCC[C@@H](NC(=O)[C@H](CC(C)C)NC(=O)[C@@H](CCCC)NC(=O)[C@H](CO)NC(=O)[C@@H](NC(=O)CNC(=O)C1(C)CCCC=CCCC[C@@](C)(NC(=O)[C@@H](NC(=O)[C@H](CC(C)C)NC(=O)[C@@H]2CCCN2C(C)=O)[C@@H](C)CC)C(=O)N[C@@H](CCC(N)=O)C(=O)N[C@@H](CO)C(=O)N[C@@H](C(C)C)C(=O)N1)[C@@H](C)CC)C(N)=O` (some centres undefined), the outcome in series [4] was Active. Moreover, on Trypanothione reductase [1], the IC50 was determined as 6.4 µM. In addition, the Activity in series [5] was 169%; in series [6] it was 140%; in series [9], 144%; in series [11], 168%. The outcome in the series on Leishmania infantum [7] and in the series with Leishmania infantum [8] was inactive. In addition, at Proteinase K [10], the half-life at 100 µM amounted to 212 min.
As for `CCCC[C@@H](NC(=O)[C@H](CC(C)C)NC(=O)[C@@H](CCCC)NC(=O)[C@H](CO)NC(=O)[C@@H](NC(=O)CNC(=O)[C@@H](NC(=O)[C@H](CO)NC(=O)[C@H](CCC(N)=O)NC(=O)[C@@H](NC(=O)[C@@H](NC(=O)[C@H](CC(C)C)NC(=O)[C@@H]1CCCN1C(C)=O)[C@@H](C)CC)[C@@H](C)CC)C(C)C)[C@@H](C)CC)C(N)=O`, the Activity in [5] turned out to be 18%; in [6], 59%; in series [9] it was 56%; in [11], 2%.
In the case of `C=CCCC[C@@](C)(NC(=O)[C@@H](NC(=O)[C@H](CO)NC(=O)[C@H](CCC(N)=O)NC(=O)[C@@](C)(CCCC=C)NC(=O)[C@@H](NC(=O)[C@H](CCCCN)NC(=O)[C@@H]1CCCN1C(C)=O)[C@@H](C)CC)C(C)C)C(=O)N[C@H](C(=O)N[C@@H](CO)C(=O)NCC(=O)N[C@@H](CCCCN)C(=O)NCC(N)=O)[C@@H](C)CC` (Ac-PKI[R5]QSV[R5]ISGKG-NH2), the half-maximal inhibitory concentration (IC50) at Trypanothione reductase [1] is 12.5 µM. Besides, the Activity in series [5] was found to be 175%; in series [6], 125%; in series [9], 145%; in series [11], 184%. Moreover, the result with Leishmania infantum [7] and in the series with Leishmania infantum [8] was inactive.
Consider `C=CCCC[C@](C)(NC(=O)[C@H](CO)NC(=O)[C@H](CCC(N)=O)NC(=O)[C@@H](NC(=O)[C@](C)(CCCC=C)NC(=O)[C@H](CCCCN)NC(=O)[C@@H]1CCCN1C(C)=O)[C@@H](C)CC)C(=O)NCC(=O)N[C@H](C(=O)N[C@@H](CO)C(=O)N[C@@H](CCCC)C(=O)N[C@@H](CCCCN)C(=O)N[C@@H](CCCC)C(N)=O)[C@@H](C)CC` (Ac-PK[S5]IQS[S5]GIS[Nle]K[Nle]-NH2), for which the IC50 was 28.2 µM at Trypanothione reductase [1] and “Not Active” against Trypanothione reductase [3]. Further, the result in the series on Leishmania infantum [7] and with Leishmania infantum [8] was inactive.
For the molecule `CC[C@H](C)[C@H](NC(=O)[C@]1(C)CCCC=CCCC[C@](C)(NC(=O)[C@H](CCCCN)NC(=O)[C@@H]2CCCN2C(=O)[C@H](CCCNC(=N)N)NC(=O)[C@H](CCCNC(=N)N)NC(=O)[C@H](CCCNC(=N)N)NC(=O)[C@H](CCCNC(=N)N)NC(=O)[C@H](CCCNC(=N)N)NC(=O)[C@H](CCCNC(=N)N)NC(=O)[C@H](CCCNC(=N)N)NC(=O)[C@H](CCCNC(=N)N)NC(=O)[C@H](CCCNC(=N)N)NC(C)=O)C(=O)N[C@@H]([C@@H](C)CC)C(=O)N[C@@H](CCC(N)=O)C(=O)N[C@@H](CO)C(=O)NCC(=O)N1)C(=O)N[C@@H](CO)C(=O)NCC(=O)N[C@@H](CC(C)C)C(=O)NCC(N)=O` (Ac-RRRRRRRRRPK[S5]IQSG[S5]ISGLG-NH2; staple 12-17), the half-maximal effective concentration (EC50) with Leishmania infantum [12] amounted to 1.95 µM; in the series on Leishmania infantum [13], 2140 nM; with THP-1 it was 330 nM.
With `CCCC[C@H](NC(=O)[C@H](CC(C)C)NC(=O)[C@H](CCCC)NC(=O)[C@H](CO)NC(=O)[C@@H](NC(=O)CNC(=O)[C@]1(C)CCCC=CCCC[C@@](C)(NC(=O)[C@H](CC(C)C)NC(=O)[C@@H]2CCCN2C(C)=O)C(=O)N[C@@H]([C@@H](C)CC)C(=O)N[C@@H](CCC(N)=O)C(=O)N[C@@H](CO)C(=O)N1)[C@@H](C)CC)C(N)=O` (stereo in doubt; 2a) [listing 1 of 2 here], the concentration for half-maximal inhibition (IC50) on Trypanothione reductase [1] worked out at 6.7 µM. Also, the half-life at 100 µM on Proteinase K [10] was 418 min.
Regarding `CCCC[C@H](NC(=O)[C@H](CC(C)C)NC(=O)[C@H](CCCC)NC(=O)[C@H](CO)NC(=O)[C@@H](NC(=O)CNC(=O)[C@]1(C)CCCC=CCCC[C@@](C)(NC(=O)[C@H](CC(C)C)NC(=O)[C@@H]2CCCN2C(C)=O)C(=O)N[C@@H]([C@@H](C)CC)C(=O)N[C@@H](CCC(N)=O)C(=O)N[C@@H](CO)C(=O)N1)[C@@H](C)CC)C(N)=O` (stereo in doubt; 2a) [listing 2 of 2 here], in series [4], the outcome was Active. The Activity is 153% in series [5], 114% in series [6], 130% in series [9] and 181% in series [11]. The outcome in the series on Leishmania infantum [7] and with Leishmania infantum [8] was inactive.
As for `CCCC[C@H](NC(=O)[C@H](CC(C)C)NC(=O)[C@H](CCCC)NC(=O)[C@H](CO)NC(=O)[C@@H](NC(=O)CNC(=O)[C@]1(C)CCCC=CCCC[C@@](C)(NC(=O)[C@H](CC(C)C)NC(=O)[C@@H]2CCCN2C(C)=O)C(=O)N[C@@H]([C@@H](C)CC)C(=O)N[C@@H](CCC(N)=O)C(=O)N[C@@H](CO)C(=O)N1)[C@@H](C)CC)C(N)=O` (stereo in doubt; 2b), the IC50 is > 25 µM at Trypanothione reductase [1] and “Not Active” against Trypanothione reductase [3].
As to `CC[C@H](C)[C@H](NC(=O)[C@]1(C)CCCC=CCCC[C@](C)(NC(=O)[C@H](CCCCN)NC(=O)[C@@H]2CCCN2C(=O)COCCOCCNC(=S)Nc2ccc(C(=O)O)c(-c3c4ccc(=O)cc-4oc4cc(O)ccc34)c2)C(=O)N[C@@H]([C@@H](C)CC)C(=O)N[C@@H](CCC(N)=O)C(=O)N[C@@H](CO)C(=O)NCC(=O)N1)C(=O)N[C@@H](CO)C(=O)NCC(=O)N[C@@H](CC(C)C)C(=O)NCC(N)=O` ({X1-AEEA}-PK[S5]IQSG[S5]ISGLG-NH2; staple 3-8), the outcome in the series with Leishmania infantum [7] and in the series on Leishmania infantum [8] was inactive.
For the molecule `CCCCCCCCCCCCCCCCCCOCC(COP(=O)([O-])OCC[N+](C)(C)C)OC` (centres undefined) [EDELFOSINE], the concentration for a half-maximal effect (EC50) in the series with Leishmania infantum [12] was 9 µM; in the series with Leishmania infantum [13], 600 nM; in the series on THP-1 it was 1000 nM.
With `CCCCCCCCCCCCCCCCOP(=O)([O-])OCC[N+](C)(C)C` [MILTEFOSINE], the EC50 in the series on Leishmania infantum [12] came out at 47.6 µM; in the series on Leishmania infantum [13], 2000 nM; in the series with THP-1, 19000 nM.
